Measured values reported in patent US4628104A, “Imidazole ketone derivatives” (G. D. Searle & Co., priority 1985, dated 1986).
Values after ≈ are worked out from the molar mass of the structure shown. Values joined by “and” are separate entries in the source; they are usually repeats but may differ in a detail not shown here. Identical values can stand only once. Like-named read-outs stand apart in the source and are kept apart here.

How the values were obtained:
B. fragilis NCTC 10581 = assay: Anti-anaerobic activity, microtitre plate broth dilution, strain A; assay type: cell-based, Bacteroides fragilis; conditions: for MBC / MIC: Bacteroides fragilis, NCTC10581, 48 h; for MBC: read-out: MBC (Minimum Bactericidal Concentration); for MIC: 48 hours at 37° C., anaerobic, read-out: MIC (Minimum Inhibitory Concentration)
B. fragilis NCTC 9343 = assay: Anti-anaerobic activity, microtitre plate broth dilution, strain B; assay type: cell-based, Bacteroides fragilis; conditions: for MBC / MIC: Bacteroides fragilis, NCTC9343, 48 h; for MBC: read-out: MBC (Minimum Bactericidal Concentration); for MIC: read-out: MIC (Minimum Inhibitory Concentration)
[1] = tested on: B. fragilis MZ-R ATCC 11295; assay: Anti-anaerobic activity, microtitre plate broth dilution, strain D; assay type: cell-based, Bacteroides fragilis; conditions: for MBC / MIC: Bacteroides fragilis, ATCC11295, 48 h; for MBC: 99.9% reduction in viable count, 48 hours, read-out: MBC (Minimum Bactericidal Concentration); for MIC: read-out: MIC (Minimum Inhibitory Concentration)
B. fragilis NCTC 9344 = assay: Anti-anaerobic activity, microtitre plate broth dilution, strain C; assay type: cell-based; conditions: Bacteroides fragilis, NCTC9344, 48 h; for MBC: 99.9% reduction in viable count, 48 hours, read-out: MBC (Minimum Bactericidal Concentration); for MIC: 48 hours at 37° C., anaerobic, read-out: MIC (Minimum Inhibitory Concentration)
B. fragilis WS-1 = assay: Anti-anaerobic activity, microtitre plate broth dilution, strain E; assay type: cell-based; conditions: Bacteroides fragilis, WS1, 48 h, 48 hours at 37° C., read-out: MIC (Minimum Inhibitory Concentration)
[2] = tested on: Fusobacterium necrophorum ATCC 11295; assay: Anti-anaerobic activity, additional strains, strain J; assay type: cell-based; conditions: ATCC11295, strain J, read-out: MIC
[3] = tested on: Peptostreptococcus anaerobicus ATCC 27337; assay: Anti-anaerobic activity, additional strains, strain M; conditions: ATCC27337
[4] = tested on: Campylobacter fetus ATCC 29428; assay: Anti-anaerobic activity, additional strains, strain I; conditions: ATCC29428
[5] = tested on: Propionibacterium acnes NCTC 7337; assay: Anti-anaerobic activity, additional strains, strain O; assay type: cell-based; conditions: Cutibacterium acnes, NCTC7337; strain O; read-out: MIC
[6] = tested on: Peptococcus magnus ATCC 29328; assay: Anti-anaerobic activity, additional strains, strain K; assay type: cell-based; conditions: Finegoldia magna, ATCC29328; strain K; read-out: MIC
[7] = tested on: Clostridium perfringens NCTC 523; assay: microbe, parasite or virus in culture; assay type: cell-based; conditions: NCTC523
[8] = tested on: Propionibacterium acnes NCTC 737; assay: Anti-anaerobic activity, additional strains, strain N; assay type: cell-based; conditions: Cutibacterium acnes, NCTC737; strain N; read-out: MIC
[9] = tested on: Clostridium perfringens NCTC 8237; assay: microbe, parasite or virus in culture; assay type: cell-based; conditions: NCTC8237, strain G
[10] = tested on: Peptococcus prevotti ATCC 9321; assay: Anti-anaerobic activity, additional strains, strain L; assay type: cell-based
Clostridium difficile CI = assay: Anti-anaerobic activity, additional strains, strain H; conditions: Clostridioides difficile, strain H
[11] = strain A, 99.9% reduction in viable count, 48 hours
[12] = 99.9% reduction in viable count, 48 hours
[13] = strain D, 48 hours at 37° C., anaerobic

SMILES	MBC (B. fragilis NCTC 10581; [11])	MIC (B. fragilis NCTC 10581; strain A)	MBC (B. fragilis NCTC 9343; [12])	MIC (B. fragilis NCTC 9343; 48 hours at 37° C., anaerobic)	MBC ([1]; strain D)	MIC [1, 13]	MBC (B. fragilis NCTC 9344)	MIC (B. fragilis NCTC 9344)	MIC (B. fragilis WS-1)	MIC [2]	MIC [3]	MIC [4]	MIC [6]	MIC [7]	MIC [8]	other results
O=C(c1ccccn1)C(Cn1ccnc1)c1ccccc1 (stereo not shown) [Example 21, 3-(Imidazol-1-yl)-2-phenyl-1-(2-pyridyl)propan-1-one]	12.5 µg/mL (≈ 45.1 µM)	12.5 µg/mL (≈ 45.1 µM)	25 µg/mL (≈ 90.1 µM)	25 µg/mL (≈ 90.1 µM)	6.2 µg/mL (≈ 22.4 µM)	6.2 µg/mL (≈ 22.4 µM)	12.5 µg/mL (≈ 45.1 µM)	6.2 µg/mL (≈ 22.4 µM)	25 µg/mL (≈ 90.1 µM)							
Cc1ncc([N+](=O)[O-])n1CCO [Metronidazole, reference compound]	0.8 µg/mL (≈ 4.67 µM)		0.8 µg/mL (≈ 4.67 µM)	0.8 µg/mL (≈ 4.67 µM)						10 µg/mL (≈ 58.4 µM)	0.3 µg/mL (≈ 1.75 µM)	10 µg/mL (≈ 58.4 µM)	0.6 µg/mL (≈ 3.51 µM)	0.08 µg/mL (≈ 0.467 µM)	10 µg/mL (≈ 58.4 µM)	MBC (B. fragilis NCTC 10581): 1.2 µg/mL (≈ 7.01 µM); MBC (Minimum Bactericidal Concentration) (B. fragilis NCTC 10581; [11]): 1.2 µg/mL and 0.6 µg/mL; MBC (Minimum Bactericidal Concentration) (B. fragilis NCTC 9343; [12]): 1.2 µg/mL and 0.6 µg/mL; MIC (Minimum Inhibitory Concentration) (B. fragilis NCTC 9343; 48 hours at 37° C., anaerobic): 0.6 µg/mL and 1.2 µg/mL; MIC [1]: 10 µg/mL (≈ 58.4 µM); MIC (Minimum Inhibitory Concentration) [1, 13]: 10.9 µg/mL and 10.0 µg/mL and 10 µg/mL; MIC [5]: 10 µg/mL (≈ 58.4 µM)
O=C(Cc1ccccc1)C(Cn1ccnc1)c1ccccc1 (stereo not shown) [Example 25, 1,3-Diphenyl-4-(imidazol-1-yl)butan-2-one]		25 µg/mL (≈ 86.1 µM)		25 µg/mL (≈ 86.1 µM)		12.5 µg/mL (≈ 43 µM)		25 µg/mL (≈ 86.1 µM)	25 µg/mL (≈ 86.1 µM)	100 µg/mL (≈ 344 µM)	1.5 µg/mL (≈ 5.17 µM)	25 µg/mL (≈ 86.1 µM)	6.2 µg/mL (≈ 21.4 µM)	0.8 µg/mL (≈ 2.76 µM)	50 µg/mL (≈ 172 µM)	MIC [9]: 0.8 µg/mL (≈ 2.76 µM); MIC [10]: 0.8 µg/mL (≈ 2.76 µM); MIC (Clostridium difficile CI): 25 µg/mL (≈ 86.1 µM)
O=C(c1cccnc1)C(Cn1cncn1)c1ccccc1 (stereo not shown) [Example 20, 2-Phenyl-1-(3-pyridyl)-3-(1,2,4-triazol-1-yl)propan-1-one]		100 µg/mL (≈ 359 µM)		100 µg/mL (≈ 359 µM)		100 µg/mL (≈ 359 µM)		100 µg/mL (≈ 359 µM)	100 µg/mL (≈ 359 µM)							
O=C(c1cccnc1)C(Cn1ccnc1)c1ccccc1 (stereo not shown) [Example 19, 3-(Imidazol-1-yl)-2-phenyl-1-(3-pyridyl)propan-1-one]	50 µg/mL (≈ 180 µM)	12.5 µg/mL (≈ 45.1 µM)	50 µg/mL (≈ 180 µM)	12.5 µg/mL (≈ 45.1 µM)	50 µg/mL (≈ 180 µM)	12.5 µg/mL (≈ 45.1 µM)	50 µg/mL (≈ 180 µM)	12.5 µg/mL (≈ 45.1 µM)	6.2 µg/mL (≈ 22.4 µM)							
CC(C)(C)C(Cn1ccnc1)C(=O)c1ccc(Cl)cc1Cl (stereo not shown) [Example 22, 1-(2,4-Dichlorophenyl)-3,3-dimethyl-2-(imidazol-1-ylmethyl)butan-1-one]		50 µg/mL (≈ 154 µM)		50 µg/mL (≈ 154 µM)		50 µg/mL (≈ 154 µM)		50 µg/mL (≈ 154 µM)	100 µg/mL (≈ 307 µM)							
